Experimental data as given in US4845195A, “Inhibitor of ribonucleotide reductase” (Merck & Co., Inc., priority 1987, dated 1989).
Ends that are not written are not given here. Peptide text beside a SMILES is read from it. * marks the point of attachment. Desaminotyrosyl = O=C(CCc1ccc(O)cc1)*

Target: ribonucleotide reductase enzyme of herpes simplex virus (Human herpesvirus 1, UniProt P08543)
Test: not given
Settings: Nature 321:439-441 and 441-443 (1986); cited from earlier work

ribonucleotide reductase enzyme of herpes simplex virus, sequence (P08543 whole entry): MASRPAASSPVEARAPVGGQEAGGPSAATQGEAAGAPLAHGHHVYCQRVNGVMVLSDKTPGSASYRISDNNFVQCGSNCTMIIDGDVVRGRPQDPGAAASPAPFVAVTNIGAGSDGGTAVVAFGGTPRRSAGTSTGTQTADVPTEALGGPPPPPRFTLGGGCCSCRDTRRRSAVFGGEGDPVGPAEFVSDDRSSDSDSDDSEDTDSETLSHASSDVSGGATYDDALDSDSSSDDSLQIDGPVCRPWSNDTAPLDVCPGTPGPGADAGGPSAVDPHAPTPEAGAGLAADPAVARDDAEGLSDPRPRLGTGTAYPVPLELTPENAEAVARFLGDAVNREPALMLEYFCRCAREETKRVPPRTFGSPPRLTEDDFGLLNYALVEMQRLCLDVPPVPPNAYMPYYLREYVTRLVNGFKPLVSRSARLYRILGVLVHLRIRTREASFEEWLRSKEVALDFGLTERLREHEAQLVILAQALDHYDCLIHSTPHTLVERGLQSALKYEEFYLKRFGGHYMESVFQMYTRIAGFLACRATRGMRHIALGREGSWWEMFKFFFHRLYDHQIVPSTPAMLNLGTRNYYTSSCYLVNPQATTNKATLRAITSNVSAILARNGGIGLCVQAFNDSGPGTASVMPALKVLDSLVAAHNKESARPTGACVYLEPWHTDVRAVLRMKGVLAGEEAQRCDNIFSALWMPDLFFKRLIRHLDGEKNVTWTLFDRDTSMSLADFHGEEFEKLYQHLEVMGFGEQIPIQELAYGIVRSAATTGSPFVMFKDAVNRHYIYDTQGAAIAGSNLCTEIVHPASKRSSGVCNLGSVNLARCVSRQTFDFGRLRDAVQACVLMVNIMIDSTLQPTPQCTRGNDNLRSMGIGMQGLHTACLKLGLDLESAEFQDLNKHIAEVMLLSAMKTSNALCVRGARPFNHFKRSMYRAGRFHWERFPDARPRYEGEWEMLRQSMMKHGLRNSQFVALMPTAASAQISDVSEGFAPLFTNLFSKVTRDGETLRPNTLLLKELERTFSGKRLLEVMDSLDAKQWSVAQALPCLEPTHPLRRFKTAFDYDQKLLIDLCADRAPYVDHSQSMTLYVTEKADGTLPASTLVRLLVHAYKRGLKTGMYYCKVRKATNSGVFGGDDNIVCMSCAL

For Tyr GVly Ala Val Val Asn Asp Leu, the “inhibition of the activity of the enzyme in vitro” value is listed as “inhibited”.

Target: T1, Herpes Simplex Virus Ribonucleotide Reductase (Human herpesvirus 2, UniProt P89462)
T1 construct: HSV RR was purified from Baby Hamster Kidney cells that were cultured with HSV2 Strain 186; made in house; host or cells: Baby Hamster Kidney cells infected with HSV2 Strain 186
T1 sequence (P89462 whole entry): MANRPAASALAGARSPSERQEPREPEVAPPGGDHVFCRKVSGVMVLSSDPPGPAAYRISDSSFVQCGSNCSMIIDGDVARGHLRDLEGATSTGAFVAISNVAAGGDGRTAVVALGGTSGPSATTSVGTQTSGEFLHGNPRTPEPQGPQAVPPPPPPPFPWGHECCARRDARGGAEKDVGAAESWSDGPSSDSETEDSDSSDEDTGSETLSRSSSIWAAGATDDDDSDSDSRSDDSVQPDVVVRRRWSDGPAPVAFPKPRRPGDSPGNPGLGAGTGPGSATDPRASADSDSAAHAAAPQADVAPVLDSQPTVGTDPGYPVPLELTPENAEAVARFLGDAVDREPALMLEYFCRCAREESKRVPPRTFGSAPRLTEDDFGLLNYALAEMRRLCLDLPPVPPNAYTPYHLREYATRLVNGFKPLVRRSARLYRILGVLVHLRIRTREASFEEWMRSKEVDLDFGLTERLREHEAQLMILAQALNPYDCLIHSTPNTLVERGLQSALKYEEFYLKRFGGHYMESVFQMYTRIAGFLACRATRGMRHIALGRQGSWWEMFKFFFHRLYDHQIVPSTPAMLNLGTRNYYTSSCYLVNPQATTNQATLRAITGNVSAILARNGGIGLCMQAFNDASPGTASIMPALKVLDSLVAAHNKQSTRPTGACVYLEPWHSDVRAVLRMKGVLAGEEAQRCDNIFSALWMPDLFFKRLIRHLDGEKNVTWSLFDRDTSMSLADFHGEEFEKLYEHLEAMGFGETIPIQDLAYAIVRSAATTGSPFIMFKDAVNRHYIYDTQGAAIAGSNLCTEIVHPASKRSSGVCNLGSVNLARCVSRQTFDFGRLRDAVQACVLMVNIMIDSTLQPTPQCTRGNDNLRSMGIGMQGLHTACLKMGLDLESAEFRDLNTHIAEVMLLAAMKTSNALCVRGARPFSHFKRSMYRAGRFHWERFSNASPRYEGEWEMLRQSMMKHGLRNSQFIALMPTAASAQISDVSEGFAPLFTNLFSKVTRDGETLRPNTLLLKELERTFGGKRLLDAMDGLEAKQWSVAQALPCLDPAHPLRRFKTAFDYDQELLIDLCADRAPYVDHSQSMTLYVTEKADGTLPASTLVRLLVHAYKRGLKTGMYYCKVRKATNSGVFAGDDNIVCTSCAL
Test: Assay of Inhibition of HSV RR Activity (reduction of tritiated cytidine-diphosphate)
Type: biochemical, HSV2 Strain 186
Settings: 30 minutes at 37°C, dithiothreitol and MgCl2, enzyme not preincubated with inhibitor; read-out: IC50 (μM concentration of peptide producing 50% inhibition of enzyme activity)
Experimental: After infection, cells were harvested and lysed. Crude HSV RR was prepared as described by Huszar et al., J. Virol.
HSV RR activity was determined as the ability of the enzyme to catalyze the reduction of tritiated cytidine-diphosphate to deoxyribo-cytidinediphosphate in 30 minutes at 37°C. in the presence of dithiothreitol and MgCl2. Activity of oligopeptide inhibitors was determined by adding them to the reaction mix at the beginning of the incubation. Enzyme was not preincubated with inhibitor.
These were analyzed for amino acid composition and in some cases sequenced. Dry peptides were resuspended in 100 mM HEPES (pH 8.0) at about 2mM, relyophilized, and stored in aliquots at -80° C. Immediately prior to use they were rehydrated with distilled H2 O and centrifuged to remove any undissolved peptide.

Point of comparison: AGAVVNDL [AGAVVNDL], IC50 80 µM. Against it:
- AVVNDL [AVVNDL] — 1.6-fold lower, 51 µM
- CC(=O)N[C@@H](Cc1ccc(O)cc1)C(=O)N[C@@H](C)C(=O)NCC(=O)N[C@@H](C)C(=O)N[C@H](C(=O)N[C@H](C(=O)N[C@@H](CC(N)=O)C(=O)N[C@@H](CC(=O)O)C(=O)N[C@@H](CC(C)C)C(=O)O)C(C)C)C(C)C [AcYAGAVVNDL] — 16-fold lower, 5 µM
- Ac-GAVVNDL [AcGAVVNDL] — within 1.5-fold, 75 µM
- TSYAGAVVNDL [TSYAGAVVNDL] — 4.7-fold lower, 17 µM
- CC(C)C[C@H](NC(=O)[C@H](CC(=O)O)NC(=O)[C@H](CC(N)=O)NC(=O)[C@@H](NC(=O)[C@@H](NC(=O)[C@H](C)NC(=O)CNC(=O)[C@H](C)NC(=O)[C@@H](N)Cc1ccc(O)cc1)C(C)C)C(C)C)C(N)=O [YAGAVVNDL--NH2, YAGAVVNDL-NH2] — within 1.5-fold, 75 µM
- CC(C)C[C@H](NC(=O)[C@H](CC(=O)O)NC(=O)[C@H](CC(N)=O)NC(=O)[C@@H](NC(=O)[C@@H](NC(=O)[C@H](C)NC(=O)CNC(=O)[C@H](C)NC(=O)CCc1ccc(O)cc1)C(C)C)C(C)C)C(=O)O [desNH2--YAGAVVNDL, desNH2-YAGAVVNDL] (Desaminotyrosyl-AGAVVNDL-OH) — 4-fold lower, 20 µM
- FPLSLMSTDKHTNFFECRSTSYAGAVVNDL — 10-fold lower, 8 µM
- Ac-AVVNDL [AcAVVNDL] — within 1.5-fold, 87 µM
- STSYAGAVVNDL [STSYAGAVVNDL] — 4.7-fold lower, 17 µM
- SYAGAVVNDL [SYAGAVVNDL] — 4.7-fold lower, 17 µM
- CC(C)C[C@H](NC(=O)[C@H](CC(=O)O)NC(=O)[C@H](CC(N)=O)NC(=O)[C@@H](NC(=O)[C@@H](N)C(C)C)C(C)C)C(=O)O [VVNDL, Val Val Asn Asp Leu] — 3.1-fold higher, 250 µM
- GAVVNDL [GAVVNDL] — within 1.5-fold, 70 µM
- CC(C)C[C@H](NC(=O)[C@H](CC(=O)O)NC(=O)[C@H](CC(N)=O)NC(=O)[C@@H](NC(=O)[C@@H](NC(=O)[C@H](C)NC(=O)CNC(=O)[C@H](C)NC(=O)[C@@H](N)Cc1ccc(O)cc1)C(C)C)C(C)C)C(=O)O [YAGAVVNDL, Tyr Ala Gly Ala Val Val Asn Asp Leu, reference compound] — 8-fold lower, 10 µM
